According to patent US9226503B2, “Composition and method for attraction of emerald ash borer Agrilus planipennis fairmaire (coleoptera: buprestidae)” (Her Majesty the Queen in Right of Canada, as represented by …, priority 2011, dated 2016):

Tests used:
A. planipennis antennae = experiment: EAG dose-response study; design: species or system Agrilus planipennis; settings: for EAG responsiveness of female antennae compared with male antennae: particularly at higher doses, P<0.0001; for EAG response of female antennae, (3Z)- vs (3E)-lactone: stimulus doses 0.01-100 μg, P=0.91
Source text: EAG analyses were made by methods and equipment generally described by Cossé & and Bartelt (2000). EAG connections were made by inserting a glass-pipette silver-grounding electrode into the back of an excised beetle head. A second glass-pipette silver-recording probe was placed in contact with the distal end of one antenna. Both pipettes were filled with Beadle-Ephrussi (Ephrussi and Beadle 1936) saline.
For the EAG-dose-response study, (3Z)- and (3E)-lactones were purified (99.9% purity by GC/MS) by high performance liquid chromatography (HPLC) using a Waters 515 pump, a Waters R401 refractive index detector, and a 25 cm by 0.46 cm i.d. silica column (Adsorbosphere Silica 5 μm, Alltech, Deerfield, Ill.), treated with silver nitrate as described by Heath and Sonnett (1980). Solvent was 8% ether in hexane. Ten micro liters of serially diluted solutions (methylene chloride) of synthetic (3Z)-lactone and (3E)-lactone were applied to filter paper strips (0.5 cm×5 cm, Whatman no. 1). The filter paper strips were placed in 14-cm-long Pasteur pipettes, hereafter referred to as stimulus cartridges, after 5 min at room temperature. Stimulus doses tested were 0.01, 0.1, 1, 10, and 100 μg. Male and female antennae were exposed to single 0.2s puffs of odor-bearing air at 5 ml/s by placing the tip of an stimulus cartridge into a hole of a glass tube (0.7 cm ID×20 cm), 10 cm from the outlet and 11 cm away from the antennal preparation. Airflow through the glass tube was humidified and set at 10 ml/s. Puff duration and airflow speeds were maintained by a stimulus flow controller (SFC-2, Syntech, Hilversum, The Netherlands). Stimuli cartridges were selected in random order, beginning with the lowest dosages and working upward to the highest dosages. Each puffed dosage was preceded and followed by a puff from a solvent blank cartridge (filter paper plus solvent). To compensate for possible deterioration of the antennal preparation, a standard control compound, geranyl acetone (1 μg dose) preceded dosages of stimuli compound. EAG amplitudes were normalized according to the responses to geranyl acetone by dividing the amplitude of the EAG generated by the test compounds by that of geranyl acetone. Dose-response series were replicated, using different antennal preparation for each replication, and the EAG responses were expressed as a percentage of the EAG responses to geranyl acetone. Each antennal preparation was tested with freshly prepared sets of stimuli cartridges. Male and female EAG responses were submitted to analysis of variance (ANOVA) using Statistica for Windows software (StatSoft Inc. Tulsa, Okla.)).

A. planipennis = experiment: Two-choice Y-tube olfactometer assay; type: in vivo, Agrilus planipennis; settings: males; lactone 10 μg, (3Z)-hexenol 5 μg; chi-square test
Method: A Y-tube olfactometer (Analytical Research Systems Inc, Gainsville, Fla.) was used to test for attraction of A. planipennis to lactone isomers and host volatiles. […] Each arm was connected to a cylinder that contained the stimulus. Charcoal filtered air was passed into each arm at a flow rate of 1.2 L/min. Treatments included the pheromone alone: (3Z)-lactone (10 μg); (3E)-lactone (10 μg); and 60:40 (3E):(3Z)-lactone (10 μg). Next, we tested bark sesquiterpenes and a green leaf volatile alone: Phoebe oil (25 μg and 2.5 μg) and (3Z)-hexenol (5 μg). We then tested the pheromone combined with bark sesquiterpenes: (3Z)-lactone (10 μg)+Phoebe oil (at both 25 μg and 2.5 μg); (3E)-lactone (10 μg)+Phoebe oil (at both 25 μg and 2.5 μg). Finally, we tested the pheromone combined with the green leaf volatile: (3Z)-lactone (10 μg)+(3Z)-hexenol (5 μg); and (3E)-lactone (10 μg)+(3Z)-hexenol (5 μg). Each stimulus (l μl for single compound treatments and a total of 2 μl for two-compound treatments) was diluted in hexane, placed on a strip of filter paper and given one minute for the solvent to evaporate before being placed in the olfactometer. A second filter paper, treated with the equivalent volume of solvent was placed in the other arm of the olfactometer to serve as the control. The apparatus was rinsed with acetone after each treatment, and the arm attached to the test stimulus was randomized between replicates.
For each treatment, we tested increasing numbers of adults until we obtained a minimum of 12 beetles responding to the stimuli (either positively or negatively). To obtain this minimum, we tested 15-54 beetles per treatment. For each trial, a single A. planipennis (mature virgin male or female, >10 days old) was given ten minutes to choose between the two stimuli; adults were used only once in the bioassay. […] A chi-square test was conducted for each independent trial.

In the case of `O=C1C/C=C\CCCCCCCCO1` [(3Z)-lactone, (3Z)-dodecen-12-olide], the “EAG responsiveness of female antennae compared with male antennae” value (A. planipennis antennae) is reported as “more responsive”, the “EAG response of female antennae, (3Z)- vs (3E)-lactone” value (A. planipennis antennae) is reported as “did not respond differently” and the “attraction of males in Y-tube olfactometer vs hexane control” value (A. planipennis) is reported as “not”.
`O=C1C/C=C/CCCCCCCCO1` [(3E)-lactone, (3E)-dodecen-12-olide] was tested, and the “EAG responsiveness of female antennae compared with male antennae” value (A. planipennis antennae) was “more responsive”, the “EAG response of female antennae, (3Z)- vs (3E)-lactone” value (A. planipennis antennae) was “did not respond differently” and the “attraction of males in Y-tube olfactometer vs hexane control” value (A. planipennis) was “significantly attracted”.
